According to patent US20090197811A1, “ORALLY ADMINISTERED PEPTIDES TO IMPROVE OR PREVENT HEPATIC FIBROSIS” (University of Southern California, priority 2007, published 2009):
“And” between values parts separate entries of the source, which are not always exact repeats. Identical values can stand only once. “Also recorded” adds a separate entry of the source. Non-standard residues stand in square brackets, D forms with d.

Key:
[1] = system: C57Bl/6J mice; assay: Western diet model: liver histology, assessment of steatosis and inflammation; type: in vivo, mouse; details: for Fatty Change Degree of fat / Fatty Change Type (predominant type) / Inflammatory Clusters: individual mice
Method: (§1) Studies were performed in male C5713L/6J mice (Jackson Laboratories, Bar Harbor Me.). Six groups were studied (n=3-5, see FIG. 1) with 4 mice per group at the outset, except for group 2, which was started with n=5; 1 mouse died in group 1. Groups 1, 2, and 3 received the Western diet for 9.5 months; during the last 2.5 months of the 9.5 months, group 2 received SR141716 10 mg/kg/day i.g., and group 3 received D-4F, 125 μg/mouse/day, in the drinking water. Groups 4, 5, and 6 received the Western diet for 7 months followed by standard chow for 2.5 months; during the 2.5 months on standard chow, group 5 received SR141716 and group 6 received D-4F as described for groups 2 and 3, respectively. Additional control groups were studied: 6-month old C57Bl/6J mice as age-matched controls (n=5) and C57Bl/6J mice that received the Western diet for 6 months (n=6).
The slides were coded, without the pathologist knowing the specific treatment group that the slides represented. The histology was graded according to a number of histologic features. The degree of fat was graded as to the approximate percentage of hepatocytes containing fat: 0, absent; +/−, less than 5%; 1+, 5-25%; 2+. 26-50%; 3+, 51-75%; 4+, >75%. The fat was also assessed as to whether it was totally macrovesicular, predominantly macrovesicular, totally microvesicular, predominantly microvesicular, or mixed macro- and microvesicular. In addition, the zone was assessed as to whether the fat was perivenular, periportal, diffuse, or focal. Inflammation was graded as absent, scanty (1 to 3 foci/slide), present (scattered, with 4 to 10 foci/slide), present + (scattered, >10 foci/slide but not numerous), and present ++ (numerous). The type of inflammation was graded as totally mononuclear, predominantly mononuclear, totally neutrophilic, predominantly neutrophilic, and mixed mononuclear-neutrophilic. The hydropic change of hepatocytes was graded as absent, mild, and moderate/severe, with the location noted as perivenular, focal or diffuse.

[2] = system: C57Bl/6J mice; assay: Western diet model: α-smooth muscle actin staining of liver sections; type: in vivo, mouse; details: mice on the Western diet treated with D-4F (FIG. 4E)
Method: as §1
Sections of formalin-fixed, paraffin-embedded liver, 7 μm thick, were used for α-smooth muscle actin immunofluorescence staining. Slides were deparaffinized in xylene and serially rehydrated in graded ethanol (100-70%). Slides were treated with 0.1 M tris-HCl (pH 7.6)/0.05 Tween-20 for 5 min, incubated with 1 μg/ml proteinase K (Sigma, St Louis Mo.)) for 15 min at room temperature, and then rinsed in water for 10 min. […]

[3] = system: murine hepatic stellate cells (HSC); assay: Culture-induced activation of primary hepatic stellate cells (ASMA and oil red O staining); type: cell-based, mouse
Method: Murine hepatic stellate cells (HSC) were isolated by collagenase/pronase digestion and Stractan density gradient centrifugation^16. α-Smooth muscle actin (ASMA) staining: HSC were cultured on glass coverslips and fixed with 10% formaldehyde (EM Science, Gibbstown, N.J.) for 20 minutes at room temperature. Cells were incubated with a mouse monoclonal anti-ASMA (1:250 or 1:50, as indicated), followed by a rabbit anti-mouse IgG TRITC conjugate (1:50, Santa Cruz Scientific, Santa Cruz, Calif.). Slides were examined using a Nikon PCM-2000 confocal microscope with a Nikon Eclipse TE300 microscope with a plan Apo 60×/1.4 aperture oil immersion objective, 543-nm laser, and Simple PCI software from the C-Imaging series from Nikon/Compix Inc (Cranberry Township Pa.). Values were obtained by counting the number of ASMA positive cells in 15 randomly selected fields in triplicate. […]
To examine the mechanism of action of D-4F, murine hepatic stellate cells (HSC) were cultured on plastic for 7 days in the absence or presence of 10 μg/ml D-4F. Without D-4F, 87±2% of cells expressed α-smooth muscle actin (ASMA) after 7 days as assessed by confocal microscopy. In contrast, in the presence of D-4F 0% of HSC expressed ASMA after 7 days (see FIG. 7).

[4] = group 3 vs group 1, Western diet 9.5 months, D-4F last 2.5 months
[5] = 7 months Western diet followed by 2.5 months Western diet + drug
[6] = 7 months Western diet followed by 2.5 months chow + drug

Substance: Ac-D-W-F-K-A-F-Y-D-K-V-A-E-K-F-K-E-A-F-NH2 (Ac-[dD][dW][dF][dK][dA][dF][dY][dD][dK][dV][dA][dE][dK][dF][dK][dE][dA][dF]-NH2; not fully specified; printed as Ac-D-W-F-K-A-F-Y-D-K-V-A-E-K-F-K-E-A-F-NH2) [D-4F]
- inflammation, histologically [1, 4]: some evidence of a reduction
- steatosis, histologically [1, 4]: no effect
- inflammation, histologically ([1]; group 6 (switch to chow plus D-4F) vs group 4 (switch to chow)): perhaps a small decrease
- Fatty Change Degree of fat [1, 5]: 4
- Fatty Change Type (predominant type) [1, 5]: Macrovesicular
- Inflammatory Clusters [1, 5]: 3 (3×) and 2
- Fatty Change Degree of fat [1, 6]: 2 (2×) and 0 and 3
- Fatty Change Type (predominant type) [1, 6]: Mixed
- Inflammatory Clusters [1, 6]: 1 and 2 (3×)
- steatohepatitis (summary) ([1]; summary statement): did not alter steatohepatitis
- activated stellate cells in liver sections (α-smooth muscle actin staining) [2]: decrease in activated stellate cells
- cytoplasmic fat (lipid) droplets, oil red O staining ([3]; HSC cultured 7 days in the presence of D-4F vs without): maintain significantly more lipid droplets; also recorded: maintained cytoplasmic fat droplets
- hepatic stellate cell activation in vitro ([3]; summary statement): prevented hepatic stellate cell activation
